We go through 1 compound from patent US20030092757A1, “Favorable modulation of health-related quality of life and health-related quality-adjusted time-to-progression of disease in patients with prostate cancer” (priority 2001, published 2003).

For test [1], the system named is patients having hormone refractory prostate cancer (HRPCa). Kind of test: Area under the Curve (AUC) analysis of health-related QoL domain scores, one year follow-up assumed. It counts as in vivo, human. From the text: The Kaplan-Meier product limit method may provide biased results if study data are obtained under certain conditions such as staggered entry of subjects into the study and/or incomplete follow-up (Biometrics. 1989; 5:781-795). Thus, a second analysis was implemented to verify that the conclusions derived from the Kaplan-Meier method would remain robust to the length of follow-up. The assumption was that all patients were followed for one year. Patients who discontinued from the study prior to one year of observation had their last observation for all health-related QoL domains carried forward through the remainder of the year. Similarly, patients who had not completed one year of observation had their health-related QoL data carried forward through one year. If the patient experienced a clinical event within the one year period, the last observation was not carried forward. The Area under the Curve (AUC) value for each domain was computed by multiplying the health-related QoL domain score by the respective duration of that score. Finally, AUC values were aggregated across all subjects within each respective treatment group (atrasentan (10 mg), atrasentan (2.5 mg), and placebo). Aggregated AUC values for each domain were compared for differences between treatment groups using a t-test.

Test [2] shares this test system. Put plainly: Time to disease or PSA progression across treatment groups. It counts as in vivo, human. As to conditions: intent-to-treat population. As to the method:
Patients received treatment with 10 mg (N=89) or 2.5 mg (N=95) of atrasentan or placebo (N=104) until experiencing a clinical event indicative of disease progression such as palliative opiate treatment of new bone or visceral pain, palliative radiation treatment of new bone pain, or new tumor growth symptoms requiring intervention or treatment with chemotherapy.

As to `CCCCN(CCCC)C(=O)CN1C[C@H](c2ccc3c(c2)OCO3)[C@@H](C(=O)O)[C@@H]1c1ccc(OC)cc1` [atrasentan, (2R,3R,4S)-2-(4-methoxyphenyl)-4-(1,3-benzodioxol-5-yl)-1-(((N,N-dibutylamino)carbonyl)methyl)pyrrolidine-3-carboxylic acid], the AUC results in test [1] (2.5 mg, except for dyspnea, social/family, functional well-being, and FACT-P domain scores) is reported as “significantly improved”. Also, in test [1] (10 mg vs 2.5 mg), the “AUC analysis, responses in the 10 mg and 2.5 mg treatment groups” value was “not statistically differentiable”. Besides, the “AUC analysis, atrasentan treatment vs placebo groups” value in test [1] (Intent to Treat population) is on record as “no statistical differences”. Besides, the “AUC analysis vs placebo” value in test [1] (per-protocol population, every health-related QoL domain score) was “strong trends in favor”. For the same compound, the “AUC for the health-related QoL domain scores” value in test [1] (physical functioning, social functioning, and pain, p<0.05) is recorded as “significantly longer”. Also, the “differences in either the time to disease or PSA progression across treatment groups” value in test [2] is reported as “no statistically significant differences”.
